Results reported in patent US20220249447A1, “CF3-, OCF3-, SCF3-, and SF5-Containing Antibacterial Agents” (Purdue Research Foundation, priority 2019, published 2022).
Values after ≈ are worked out from the molar mass of the structure shown. Where two headings read alike, the source gives them in different places. One block for each compound: values may come before it.

How the values were obtained:
S. aureus = assay: MIC, broth microdilution, S. aureus; type: cell-based; conditions: Staphylococcus aureus
Method: (§1) Bacteria were cultured in cation-adjusted Mueller Hinton Broth (for strains in Tables 1-3) or Brain Heart Infusion broth (for Enterococcus faecium) or Tryptic Soy Broth (all other bacteria) in a 96-well plate at 37° C. for at least 20 hours. The MIC was classified as the lowest concentration where no visual growth of bacteria was observed. The minimum bactericidal concentration (MBC) was tested by spotting 4 μL from wells with no growth onto Tryptic Soy Agar (TSA) plates. Plates were incubated at 37° C. for at least 18 hours before recording the MBC.

[1] = system: C. difficile ATCC BAA 1801; assay: MIC against C. difficile ATCC BAA 1801; type: cell-based
Method: as §1

[2] = system: L. monocytogenes ATCC 19115; assay: MIC, broth microdilution, L. monocytogenes ATCC 19115; type: cell-based; conditions: Listeria monocytogenes, ATCC19115
Method: as §1

[3] = system: Neisseria gonorrhea strain 181; assay: MIC against Neisseria gonorrhea strain 181; type: cell-based
Method: as §1

[4] = system: C. difficile NR-32883 (P2); assay: MIC against C. difficile NR-32883 (P2); type: cell-based
Method: as §1

[5] = system: C. difficile NR-13432 (isolate 6); assay: MIC against C. difficile NR-13432 (isolate 6); type: cell-based
Method: as §1

[6] = system: C. difficile NR-32904 (P30); assay: MIC against C. difficile NR-32904 (P30); type: cell-based
Method: as §1

MRSA ATCC 33592 = assay: MIC, broth microdilution, MRSA ATCC 33592; type: cell-based, methicillin-resistant S. aureus; conditions: Staphylococcus aureus
Method: All MRSA isolates were acquired from BEI Resources. The remaining bacteria were purchased from the American Type Culture Collection (ATCC).
as §1

[7] = system: C. difficile NR-32895 (P19); assay: MIC against C. difficile NR-32895 (P19); type: cell-based
Method: as §1

E. faecalis ATCC 29212 = assay: MIC, broth microdilution, E. faecalis ATCC 29212; type: cell-based; conditions: Enterococcus faecalis, ATCC29212
Method: as §1

[8] = system: C. difficile NR-32891 (P13); assay: MIC against C. difficile NR-32891 (P13); type: cell-based
Method: as §1

[9] = system: C. difficile NR-13435 (isolate 9); assay: MIC against C. difficile NR-13435 (isolate 9); type: cell-based
Method: as §1

VRE ATCC 51575 = assay: MIC, broth microdilution, VRE ATCC 51575; type: cell-based; conditions: Enterococcus
Method: as §1

C. difficile ATCC 43255 = assay: MIC against C. difficile ATCC 43255; type: cell-based
Method: as §1

MRSA USA300 cells = assay: Time-kill assay; type: cell-based; conditions: for Δlog2 CFU/mL: MRSA USA300, 3× MIC or 6× MIC, up to 24 hours
Method: The time-kill analysis was performed as previously described^29. […] Aliquots (100 μL) were collected from each treatment after 0, 2, 4, 8, 12, and 24 hours of incubation at 37° C. and subsequently serially diluted in phosphate-buffered saline (PBS). Bacteria were then transferred to TSA plates and incubated at 37° C. for 18-20 hours before viable CFU/mL was determined (see FIG. 2).

[10] = Clostridioides difficile, BAA1801; read-out: MIC C. difficile ATCC BAA 1801
[11] = Clostridioides difficile; read-out: MIC C. difficile NR-32883 (P2)
[12] = Clostridioides difficile; read-out: MIC C. difficile NR-13432 (isolate 6)
[13] = Clostridioides difficile; read-out: MIC C. difficile NR-32904 (P30)
[14] = Clostridioides difficile; read-out: MIC C. difficile NR-32895 (P19)
[15] = Clostridioides difficile; read-out: MIC C. difficile NR-32891 (P13)
[16] = Clostridioides difficile; read-out: MIC C. difficile NR-13435 (isolate 9)
[17] = Clostridioides difficile, ATCC43255; read-out: MIC C. difficile ATCC 43255

Compound: CC[C@H]1OC(=O)[C@H](C)[C@@H](O[C@H]2C[C@@](C)(OC)[C@@H](O)[C@H](C)O2)[C@H](C)[C@@H](O[C@@H]2O[C@H](C)C[C@H](N(C)C)[C@H]2O)[C@](C)(O)C[C@@H](C)CN(C)[C@H](C)[C@@H](O)[C@]1(C)O [Azithromycin, reference compound]
MIC [3]: 256 µg/mL (≈ 342 µM)

Compound: CN(C)[C@@H]1C(O)=C(C(N)=O)C(=O)[C@@]2(O)C(O)=C3C(=O)c4c(O)cccc4[C@@](C)(O)[C@H]3C[C@@H]12 [Tetracycline, reference compound]
MIC [3]: 2 µg/mL (≈ 4.5 µM)

Compound: O=C(Nc1nnc(-c2cccs2)o1)c1ccc(S(=O)(=O)C(F)(F)F)cc1 [HSGN-103]
MIC C. difficile ATCC BAA 1801 [1]: 0.5 µg/mL (≈ 1.24 µM) | Bactericidal/Bacteriostatic (MRSA USA300 cells): Bacteriostatic | Δlog2 CFU/mL (MRSA USA300 cells): 1.04 | MIC C. difficile NR-32883 (P2) [4]: 0.5 µg/mL (≈ 1.24 µM) | MIC C. difficile NR-13432 (isolate 6) [5]: 0.5 µg/mL (≈ 1.24 µM) | MIC C. difficile NR-32904 (P30) [6]: 0.5 µg/mL (≈ 1.24 µM) | MIC C. difficile NR-32895 (P19) [7]: 0.5 µg/mL (≈ 1.24 µM) | MIC C. difficile NR-32891 (P13) [8]: 0.5 µg/mL (≈ 1.24 µM) | MIC C. difficile NR-13435 (isolate 9) [9]: 0.5 µg/mL (≈ 1.24 µM) | MIC C. difficile ATCC 43255 (C. difficile ATCC 43255): 0.5 µg/mL (≈ 1.24 µM)

Compound: CC(=O)NC[C@H]1CN(c2ccc(N3CCOCC3)c(F)c2)C(=O)O1 [Linezolid, reference compound]
Bactericidal/Bacteriostatic (MRSA USA300 cells): Bacteriostatic | Δlog2 CFU/mL (MRSA USA300 cells): 1.7

Compound: CN[C@H](CC(C)C)C(=O)N[C@H]1C(=O)N[C@@H](CC(N)=O)C(=O)N[C@H]2C(=O)N[C@H]3C(=O)N[C@H](C(=O)N[C@H](C(=O)O)c4cc(O)cc(O)c4-c4cc3ccc4O)[C@H](O)c3ccc(c(Cl)c3)Oc3cc2cc(c3O[C@@H]2O[C@H](CO)[C@@H](O)[C@H](O)[C@H]2O[C@H]2C[C@](C)(N)[C@H](O)[C@H](C)O2)Oc2ccc(cc2Cl)[C@H]1O [Vancomycin, reference compound]
MIC ([1]; Clostridioides difficile, BAA1801, read-out: MIC C. difficile ATCC BAA 1801): 1 µg/mL (≈ 0.69 µM) | Bactericidal/Bacteriostatic (MRSA USA300 cells): Bactericidal | MIC ([4]; Clostridioides difficile, read-out: MIC C. difficile NR-32883 (P2)): 0.5 µg/mL (≈ 0.345 µM) | MIC ([5]; Clostridioides difficile, read-out: MIC C. difficile NR-13432 (isolate 6)): 0.25 µg/mL (≈ 0.173 µM) | MIC ([6]; Clostridioides difficile, read-out: MIC C. difficile NR-32904 (P30)): 1 µg/mL (≈ 0.69 µM) | MIC ([7]; Clostridioides difficile, read-out: MIC C. difficile NR-32895 (P19)): 1 µg/mL (≈ 0.69 µM) | MIC ([8]; Clostridioides difficile, read-out: MIC C. difficile NR-32891 (P13)): 0.5 µg/mL (≈ 0.345 µM) | MIC ([9]; Clostridioides difficile, read-out: MIC C. difficile NR-13435 (isolate 9)): 1 µg/mL (≈ 0.69 µM) | MIC (C. difficile ATCC 43255; Clostridioides difficile, ATCC43255, read-out: MIC C. difficile ATCC 43255): 1 µg/mL (≈ 0.69 µM)

Continued, values first:

MIC (S. aureus): 0.25 µg/mL (≈ 0.616 µM) | MIC [1, 10]: 0.06 µg/mL (≈ 0.148 µM) | MIC [2]: 0.25 µg/mL (≈ 0.616 µM) | MIC [3]: 0.5 µg/mL (≈ 1.23 µM) | MIC [4, 11]: 0.003 µg/mL (≈ 0.00739 µM) | MIC [5, 12]: 0.015 µg/mL (≈ 0.037 µM) | MIC [6, 13]: 0.06 µg/mL (≈ 0.148 µM) | MIC (MRSA ATCC 33592): 0.25 µg/mL (≈ 0.616 µM) | MIC [7, 14]: 0.03 µg/mL (≈ 0.0739 µM) | MIC (E. faecalis ATCC 29212): 0.5 µg/mL (≈ 1.23 µM) | MIC [8, 15]: 0.06 µg/mL (≈ 0.148 µM) | MIC [9, 16]: 0.003 µg/mL (≈ 0.00739 µM) | MIC (VRE ATCC 51575): 0.5 µg/mL (≈ 1.23 µM) | MIC (C. difficile ATCC 43255; [17]): 0.007 µg/mL (≈ 0.0172 µM)
Compound: O=C(Nc1nnc(-c2ccc(Cl)s2)o1)c1ccc(SC(F)(F)F)cc1 [HSGN-210, N-(5-(5-chlorothiophen-2-yl)-1,3,4-oxadiazol-2-yl)-4-((trifluoromethyl)thio)benzamide]

MIC (S. aureus): 0.5 µg/mL (≈ 1.15 µM) | MIC [1, 10]: 0.015 µg/mL (≈ 0.0345 µM) | MIC [3]: > 128 µg/mL | MIC (MRSA ATCC 33592): 0.25 µg/mL (≈ 0.576 µM)
Compound: O=C(Nc1nnc(-c2ccc(Cl)cc2Cl)o1)c1ccc(SC(F)(F)F)cc1 [HSGN-248, N-(5-(2,4-dichlorophenyl)-1,3,4-oxadiazol-2-yl)-4-((trifluoromethyl)thio)benzamide]

MIC (S. aureus): 0.5 µg/mL (≈ 1.25 µM) | MIC [1, 10]: 0.015 µg/mL (≈ 0.0374 µM) | MIC [3]: 2 µg/mL (≈ 4.98 µM) | MIC [4, 11]: 0.003 µg/mL (≈ 0.00748 µM) | MIC [5, 12]: 0.03 µg/mL (≈ 0.0748 µM) | MIC [6, 13]: 0.06 µg/mL (≈ 0.15 µM) | MIC (MRSA ATCC 33592): 0.5 µg/mL (≈ 1.25 µM) | MIC [7, 14]: 0.06 µg/mL (≈ 0.15 µM) | MIC [8, 15]: 0.125 µg/mL (≈ 0.311 µM) | MIC [9, 16]: 0.007 µg/mL (≈ 0.0174 µM) | MIC (C. difficile ATCC 43255; [17]): 0.06 µg/mL (≈ 0.15 µM)
Compound: O=C(Nc1nnc(-c2ccc(F)cc2F)o1)c1ccc(SC(F)(F)F)cc1 [HSGN-219, N-(5-(2,4-difluorophenyl)-1,3,4-oxadiazol-2-yl)-4-((trifluoromethyl)thio)benzamide]

MIC (S. aureus): 0.5 µg/mL (≈ 1.25 µM) | MIC [1, 10]: 0.015 µg/mL (≈ 0.0374 µM) | MIC [3]: 0.125 µg/mL (≈ 0.312 µM) | MIC (MRSA ATCC 33592): 0.5 µg/mL (≈ 1.25 µM)
Compound: O=C(Nc1nnc(-c2cccc(Cl)c2)o1)c1ccc(SC(F)(F)F)nc1 [HSGN-247, N-(5-(3-chlorophenyl)-1,3,4-oxadiazol-2-yl)-6-((trifluoromethyl)thio)nicotinamide]

MIC (S. aureus): 0.25 µg/mL (≈ 0.577 µM) | MIC [3]: 2 µg/mL (≈ 4.62 µM) | MIC (MRSA ATCC 33592): 0.125 µg/mL (≈ 0.288 µM)
Compound: O=C(Nc1nnc(-c2cccc(C(F)(F)F)c2)o1)c1ccc(SC(F)(F)F)cc1 [HSGN-253, N-(5-(3-(trifluoromethyl)phenyl)-1,3 ,4-oxadiazol-2-yl)-4-((trifluoromethyl)thio)benzamide]
